Laboratory results: patent US9096581B2, “Fluoroethyl thiamine or salts thereof and application thereof in preparation of anticoccidial drugs” (GUANGZHOU ORIGMOL FEED-ADDITIVE CO., LTD, priority 2012, dated 2015)
“Also recorded” adds a separate entry of the source. Structures can show the parent of a compound that is named as a salt.

Tests used:
Type in all cases: in vivo
[1] = tested on: Eimeria tenella GD strains; experiment: Comparison with other anticoccidial drugs in chickens infected with Eimeria tenella GD (Embodiment 3); set-up: oocyst value: scale not given here; conditions: for anticoccidial index (ACI) / number of oocysts in cecum / lesion value / survival rate / average weight gain / bloody feces scoring / oocyst value / relative weight gain rate: 125 ppm in feed; for number of oocysts in cecum / lesion value / average weight gain: 7th day; for lesion value: cecum, scale 0-40; for survival rate / average weight gain / bloody feces scoring: chickens; for bloody feces scoring: 5 days after infecting, score 0-4; for oocyst value: converted per Table 2; for relative weight gain rate: vs non-infected non-drug control
Description: 1-day-old Lingnan yellow chickens, purchased from Poultry Research Unit, Bureau of Animal Husbandry, Guangdong Academy of Agricultural Sciences, bred under coccidium-free environment, and subjected to experiment after no coccidium oocyst is found in feces through microscopic examination when the chickens are 14 days old. Perfect compound feed for chickens: prepared by Huizhou Yuantai Feed Co. Ltd., and containing no antibacterial or anticoccidial additive.
Eimeria tenella GD strains, having no resistance to various anticoccidial drugs. Breeding and amplifying in one chicken before the experiment, collecting fresh oocysts, sporulating, and preserving at 4° C. for later use.
Weighing the 14-day-old experiment chickens one by one, rejecting emaciated chickens or overweighted chickens, selecting healthy chickens of which the individual body weight difference is within 20 g, and dividing into 6 groups with 30 chickens in each group. Groups 1 and 2 are respectively a non-drug-applied and non-coccidium-killed control group and a coccidium-infected and non-drug-applied control group, and Groups 3-6 are respectively added with different anticoccidial drugs according to Table 4. Feeding with feed containing different drugs on the day of experiment grouping, enabling the chickens to freely take in the feed, and feeding the chickens until the experiment ends.
(§1) Except the non-coccidium-infected and non-drug-applied control group, giving each experiment chicken in each experiment group with 2.5×10^5 eimeria tenella sporulated oocysts via the crop on next day of the grouping day. During experiment, observing and recording the spirit, appetite, bloody feces situation, death count and the like of the chickens every day. Performing bloody feces scoring on the chickens in each group 5 days after infecting. On the 7th day, respectively weighing all the chickens in each group, then autopsying them, observing cecum lesions and counting the oocysts in the cecum.
(§2) The evaluation standard is the same with Embodiment 2.

Eimeria acervulina HT = experiment: Anticoccidial effect on Eimeria acervulina in chickens (Embodiment 5); conditions: 125 ppm in feed; for average weight gain / number of oocysts in feces: 7th day after infecting; for survival rate: chickens; for relative decrement rate of oocysts: vs infected non-drug control; for relative weight gain rate: vs non-infected non-drug control
Description: (§3) 1-day-old Lingnan yellow chickens, purchased from Poultry Research Unit, Bureau of Animal Husbandry, Guangdong Academy of Agricultural Sciences, bred under coccidium-free environment, and subjected to grouping and experiment after no coccidium oocyst is found in feces through microscopic examination when the chickens are 14 days old.
Eimeria acervulina HT, having no resistance to various anticoccidial drugs. Breeding and amplifying in chickens before the experiment, collecting fresh eggs, sporulating, and preserving at 4° C. for later use.
Weighing the 14-day-old experiment chickens one by one, rejecting emaciated chickens or overweighted chicks, selecting healthy chickens of which the individual body weight difference is within 20 g, and dividing to 4 groups with 30 chickens in each group. Groups 1 and 2 are respectively a non-drug-applied and non-coccidium-killed control group and a coccidium-infected and non-drug-applied control group, and Groups 3 and 4 are added with fluoroethyl thiamine hydrochloride or amprolium according to Table 8. Feeding with feed containing different drugs on the day of experiment grouping, enabling the chickens to freely take in the feed, and feeding the chickens until the experiment ends.
Except the non-coccidium-infected and non-drug-applied control group, giving each experiment chicken in each experiment group with 5×10^5 eimeria acervulina sporulated oocysts via the crop on the next day of the grouping day. During experiment, observing and recording the spirit, appetite, bloody feces situation, death count and the like of the chickens every day. On the 7th day after infecting, respectively weighing each group, calculating the relative weight gain rate, simultaneously collecting feces samples, and counting the number of oocysts per gram of feces.
2.3.1 Weight gain: respectively weighing each chicken when the experiment starts and ends, and calculating the average weight gain and relative weight gain rate. The relative weight gain rate=(the average weight gain in the experiment groups/the average weight gain in the non-infected and non-drug-applied control group)×100%.
2.3.2 Survival rate: recording the number of dead chickens of each group, autopsying to determine the death cause, and calculating the survival rate. The survival rate=(the total number of the chickens in the experiment groups−the number of the chickens dying of coccidium infection during the experiment)/the total number of the chickens in the experiment groups×100%.
2.3.3 oocyst counting and relative decrement rate of oocysts: on the 7th day after coccidium infection, digesting the collected fresh feces with 10% sodium hypochlorite for 15 min, counting the number of the coccidium oocysts per gram of feces through a blood counting chamber, and calculating the relative decrement rate of the oocysts in the feces of each experiment group. The relative decrement rate of oocysts=(the number of the oocysts per gram of feces in the coccidium-killed and non-drug-applied control group−the number of the oocysts per gram of feces in the experiment groups)/the number of the oocysts per gram of feces in the coccidium-killed and non-drug-applied control group×100%.

[2] = tested on: Eimeria tenella JM strains (amprolium-resistant); experiment: Effect on amprolium-resistant coccidium strain in chickens (Embodiment 4); conditions: 125 ppm in feed; for number of oocysts in cecum / lesion value / the average weight gain: 7th day; for lesion value: cecum, scale 0-40; for survival rate / the average weight gain / bloody feces scoring: chickens; for bloody feces scoring: 5 days after infecting, score 0-4; for oocyst value: converted per Table 2; for relative weight gain rate: vs non-infected non-drug control
Method: as §3
Eimeria tenella JM strains, separated and purified from a chicken farm in Jiangmen, Guangdong, which are tested and identified to be amprolium-resistant coccidium strains. Breeding and amplifying in chickens before the experiment, collecting fresh eggs, sporulating, and preserving at 4° C. for later use.
Weighing the 14-day-old experiment chickens one by one, rejecting emaciated chickens or overweighted chickens, selecting healthy chickens of which the individual body weight difference is within 20 g, and dividing into 4 groups with 30 chickens in each group. Groups 1 and 2 are respectively a non-drug-applied and non-coccidium-killed control group and a coccidium-infected and non-drug-applied control group, and Groups 3 and 4 are respectively added with fluoroethyl thiamine hydrochloride and amprolium. Feeding with feed containing different drugs on the day of experiment grouping according to Table 6, enabling the chickens to freely take in the feed, and feeding the chickens until the experiment ends.
as §1, with “group with 1.0×10^5 eimeria tenella” for “group with 2.5×10^5 eimeria tenella”, “crop on the next day” for “crop on next day”
as §2

## CCCc1ncc(C[n+]2ccccc2C)c(N)n1 [amprolium, Amprolium, reference compound]
[1]
  anticoccidial index (ACI): 191.2
  number of oocysts in cecum: 0.566 ×10^6/chicken
  lesion value: 4
  survival rate: 100%
  average weight gain: 166.3 g/chicken
  bloody feces scoring: 0
  oocyst value: 1
  relative weight gain rate: 96.2%
Eimeria acervulina HT
  average weight gain: 166.6 g
  number of oocysts in feces: 29800 g⁻¹
  survival rate: 100%
  relative decrement rate of oocysts: 88.8%
  relative weight gain rate: 86.4%
[2]
  anticoccidial index (ACI): 93.5
  effect on amprolium-resistant strain, in words: eimeria tenella JM strain has resistance to amprolium
  number of oocysts in cecum: 2.878 ×10^6/chicken
  lesion value: 28.4
  survival rate: 60%
  the average weight gain: 135.6 g/chicken
  bloody feces scoring: 4
  oocyst value: 10
  relative weight gain rate: 71.9%

## CCc1ncc(C[n+]2csc(CCF)c2C)c(N)n1 [fluoroethyl thiamine hydrochloride, 3-[(4-amino-2-ethyl-5-pyrimidyl)-methylene]-5-(2-fluoroethyl)-4-methyl thiazole chloride hydrochloride]
[1]
  anticoccidial index (ACI): 201.6
  number of oocysts in cecum: 0 ×10^6/chicken
  lesion value: 0
  survival rate: 100%
  average weight gain: 175.6 g/chicken
  bloody feces scoring: 0
  oocyst value: 0
  relative weight gain rate: 101.6%
[1]; 125 ppm in feed (maduramicin 5 ppm), hydrochloride
  comparison with the other anticoccidial drugs: superior to amprolium and maduramicin in lesion and oocyst value; also recorded: superior to nicarbazin in weight gain
Eimeria acervulina HT
  average weight gain: 186.5 g
  number of oocysts in feces: 6500 g⁻¹
  survival rate: 100%
  relative decrement rate of oocysts: 97.6%
  relative weight gain rate: 96.7%
Eimeria acervulina HT; hydrochloride
  inhibition of eimeria acervulina, in words: significant inhibition effect on the eimeria acervulina; also recorded: superior to amprolium in eimeria acervulina inhibition
[2]
  anticoccidial index (ACI): 196.8
  effect on amprolium-resistant strain, in words: can protect the experiment chickens from being infected by the strains
  number of oocysts in cecum: 0 ×10^6/chicken
  lesion value: 0
  survival rate: 100%
  the average weight gain: 182.7 g/chicken
  bloody feces scoring: 0
  oocyst value: 0
  relative weight gain rate: 96.8%
